Measurements published in patent US8859535B2, “Hydroxy substituted isoquinolinone derivatives” (Novartis AG, priority 2011, dated 2014).

Assays:
Assay type in all cases: binding
[1] = molecular target: T1, human MDM2 protein (amino acids 2-188) (Homo sapiens, UniProt Q00987); assay: p53-MDM2 TR-FRET assay (p53-MDM2 Assay 1); conditions: 1.25 nM MDM2-biotinylated, 10 nM Cy5-p53 peptide; read-out: IC50 (μM) of p53-Hdm2 inhibition (TR-FRET) Assay 1
T1 construct: human MDM2 protein (amino acids 2-188); made in house
How it was run: (§1)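 C-terminally biotinylated MDM2 (aa 2-188, 1.25 nM) or MDM4 (aa 2-185, 2.5 nM) with Eu-streptavidin (0.625 nM), 15 min preincubation, then 10 nM Cy5-p53 peptide (aa18-26), 15 min room temperature; TR-FRET 665/620 nm ratio, IC50 by curve fit. Modified MDM2 Assay 2 uses 0.1 nM MDM2 and 0.1 nM Eu-streptavidin.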

[2] = molecular target: T1, human MDM2 protein (amino acids 2-188); assay: p53-MDM2 TR-FRET assay, modified (p53-MDM2 Assay 2); conditions: 0.1 nM MDM2, 0.1 nM Europium labeled streptavidin; read-out: IC50 (nM) of p53-Hdm2 inhibition (TR-FRET) Assay 2
How it was run: as §1

[3] = molecular target: T2, human MDM4 protein (amino acids 2-185) (Homo sapiens, UniProt O15151); assay: p53-MDM4 TR-FRET assay (p53-MDM4 Assay 1); conditions: 2.5 nM MDM4-biotinylated, 10 nM Cy5-p53 peptide; read-out: IC50 (μM) of p53-Hdm4 inhibition (TR-FRET) Assay 1
T2 construct: human MDM4 protein (amino acids 2-185); made in house
T2 sequence (O15151 2-185): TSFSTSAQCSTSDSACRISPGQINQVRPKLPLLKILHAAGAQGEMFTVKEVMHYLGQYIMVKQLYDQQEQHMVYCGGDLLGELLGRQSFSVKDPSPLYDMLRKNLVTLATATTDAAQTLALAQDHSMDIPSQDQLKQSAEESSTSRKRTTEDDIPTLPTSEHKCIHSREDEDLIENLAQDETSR
How it was run: as §1

T1 sequence (Q00987 2-188): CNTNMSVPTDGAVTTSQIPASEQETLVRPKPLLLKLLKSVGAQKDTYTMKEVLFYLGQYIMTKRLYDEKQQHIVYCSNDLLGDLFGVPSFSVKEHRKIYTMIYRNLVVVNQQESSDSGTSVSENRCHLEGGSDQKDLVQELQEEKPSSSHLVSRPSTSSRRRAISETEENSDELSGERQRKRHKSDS

Compound | IC50 [1] | IC50 [2] | IC50 [3]
COc1cc2c(cc1OC(C)C)[C@H](c1ccc(Cl)cc1)N(c1ccc(C(C)(O)C3CC4CCC(C3)N4C3COC3)cc1)C(=O)C2 (stereo partly drawn) [Example 115, (S)-1-(4-Chloro-phenyl)-2-{4-[1-hydroxy-1-(8-oxetan-3-yl-8-aza-bicyclo[3.2.1]oct-3-yl)-ethyl]-phenyl}-7-isopropoxy-6-methoxy-1,4-dihydro-2H-isoquinolin-3-one] | 0.0051 µM | 5.11 nM | 5.39 µM
COc1cc2c(cc1OC(C)C)[C@H](c1ccc(Cl)cc1)N(c1ccc(C(C)(O)C3CC4CCCC(C3)N4)cc1)C(=O)C2 (stereo partly drawn) [Example 116, (S)-2-{4-[1-(9-Aza-bicyclo[3.3.1]non-3-yl)-1-hydroxy-ethyl]-phenyl}-1-(4-chloro-phenyl)-7-isopropoxy-6-methoxy-1,4-dihydro-2H-isoquinolin-3-one] | 0.0036 µM | 3.4 nM | 3.93 µM
COc1cc2c(cc1OC(C)C)[C@H](c1ccc(Cl)cc1)N(c1ccc(C(C)(O)C3CC4CCCC(C3)N4C=O)cc1)C(=O)C2 (stereo partly drawn) [Example 117, 3-(1-{4-[(S)-1-(4-Chloro-phenyl)-7-isopropoxy-6-methoxy-3-oxo-3,4-dihydro-1H-isoquinolin-2-yl]-phenyl}-1-hydroxy-ethyl)-9-aza-bicyclo[3.3.1]nonane-9-carbaldehyde] | 0.0028 µM | 1.6 nM | 2.88 µM

Continued, values first:

IC50 [1] | IC50 [2] | IC50 [3] | Compound
0.0129 µM | 13.7 nM | 25.1 µM | COc1cc2c(cc1OC(C)C)[C@H](c1ccc(Cl)cc1)N(c1ccc(C(C)(O)C3CC4CCCC(C3)N4CC(F)(F)F)cc1)C(=O)C2 (stereo partly drawn) [Example 118, (S)-1-(4-Chloro-phenyl)-2-(4-{1-hydroxy-1-[9-(2,2,2-trifluoro-ethyl)-9-aza-bicyclo[3.3.1]non-3-yl]-ethyl}-phenyl)-7-isopropoxy-6-methoxy-1,4-dihydro-2H-isoquinolin-3-one]
0.0041 µM | 3.72 nM | 4.52 µM | COc1cc2c(cc1OC(C)C)[C@H](c1ccc(Cl)cc1)N(c1ccc(C(C)(O)C3CC4CCCC(C3)O4)cc1)C(=O)C2 (stereo partly drawn) [Example 161, (S)-1-(4-Chloro-phenyl)-2-{4-[1-hydroxy-1-(9-oxa-bicyclo[3.3.1]non-3-yl)-ethyl]-phenyl}-7-isopropoxy-6-methoxy-1,4-dihydro-2H-isoquinolin-3-one]
0.0015 µM | 1.25 nM | 1.96 µM | COc1cc2c(cc1OC(C)C)[C@H](c1ccc(Cl)cc1)N(c1ccc([C@@](C)(O)C3CCS(=O)(=O)CC3)cc1)C(=O)C2 [Example 168, (S)-1-(4-Chloro-phenyl)-2-{4-[(S)-1-(1,1-dioxo-hexahydro-1-thiopyran-4-yl)-1-hydroxy-ethyl]-phenyl}-7-isopropoxy-6-methoxy-1,4-dihydro-2H-isoquinolin-3-one]
0.0009 µM | 0.961 nM | 1.17 µM | COc1cc2c(cc1OC(C)C)[C@H](c1ccc(Cl)cc1)N(c1ccc([C@@](C)(O)C3CC4CCC(C3)S4(=O)=O)cc1)C(=O)C2 (stereo partly drawn) [Example 174, (S)-1-(4-Chloro-phenyl)-2-{4-[(S)-1-(8,8-dioxo-8-thia-bicyclo[3.2.1]oct-3-yl)-1-hydroxy-ethyl]-phenyl}-7-isopropoxy-6-methoxy-1,4-dihydro-2H-isoquinolin-3-one]
